From patent US12018253B2, “Method of detecting Polycomb Repressive Complex activity” (IMBA—INSTITUT FÜR MOLEKULARE BIOTECHNOLOGIE GMBH, priority 2017, dated 2024) come the findings set out here.

Each structure is given as a SMILES string. Non-standard residues stand in square brackets, D forms with d. Residues, ends and D or L forms follow the SMILES beside them. *: point of attachment. Benzoyl(4-tBu) = CC(C)(C)c1ccc(C(=O)*)cc1; Lys(Et2) = CCN(CC)CCCC[C@H](N)C(=O)O

The subject of one assay is cPRC1-TetO-mESCs. As to the kind of experiment: Chemical inhibition in cPRC1-TetO-mESCs (TetR-Cbx7 dual GFP/BFP reporter), flow cytometry without and with Dox. It counts as cell-based, mouse. The following applies: for initiation of reporter gene silencing: TetR-Cbx7 tethered, absence of Dox; for maintenance of reporter gene silencing (repression): presence of Dox (1 μg/ml), increasing concentrations of compound.

Another assay concerns the target T1, PRC2 (Mus musculus, UniProt Q61188).
T1 construct: endogenous in cells; host or cells: parental TetO-mESCs (mouse embryonic stem cells derived from haploid mESCs)
As to the kind of experiment: Immuno blot of H3K27me3, Ezh2 and Cbx7 in parental TetO-mESCs treated with GSK126. Format: cell-based. The procedure: Nuclear extract from 10×10^6 mESCs was obtained by lysis in Buffer A (final: 25 mM Hepes ph 7.6, 5 mM MgCl2, 25 mM KCl, 0.05 mM EDTA, 10% Glycerol, 1 mM DTT, 1 mM PMSF, 1× Complete Mini protease inhibitor) followed by collection in RIPA buffer (final: 150 mM NaCl, 1% triton, 0.5% sodium deoxy-cholate, 0.1% SDS, 50 mM Tris pH 8.0). Nuclear extracts were homogenized by sonication in a Diagenode Bioruptor and concentration was determined by Bradford assay (Biorad). 20 μg/lane total protein was run on Novex Life Technology NuPAGE 4-12% Bis-Tris gels in Invitrogen NuPAGE MES SDS Running Buffer and transferred on a Merck Chemicals Immobilon-P Membrane (PVDF […]). The membrane was blocked (5% non-fat dry milk in 1×PBS, 0.1% Tween 20) and incubated with the following primary antibodies (5% non-fat dry milk in 1×PBS, 0.1% Tween 20): H3K27me3 (Diagenode, C15410195), Cbx7 (Abcam, ab21873), RYBP (Sigma, PRS2227), H2AK119ub (Cell Signaling, D27C4), Ezh2 (Active Motif, 39901). Finally, the membrane was incubated with corresponding secondary HRP coupled antibodies (5% non-fat dry milk in 1×PBS, 0.1% Tween 20), developed using Clarity Western ECL Substrate (Biorad) and imaged by a ChemiDoc XRS+ Imaging system (Biorad).

T1 sequence (Q61188 whole entry): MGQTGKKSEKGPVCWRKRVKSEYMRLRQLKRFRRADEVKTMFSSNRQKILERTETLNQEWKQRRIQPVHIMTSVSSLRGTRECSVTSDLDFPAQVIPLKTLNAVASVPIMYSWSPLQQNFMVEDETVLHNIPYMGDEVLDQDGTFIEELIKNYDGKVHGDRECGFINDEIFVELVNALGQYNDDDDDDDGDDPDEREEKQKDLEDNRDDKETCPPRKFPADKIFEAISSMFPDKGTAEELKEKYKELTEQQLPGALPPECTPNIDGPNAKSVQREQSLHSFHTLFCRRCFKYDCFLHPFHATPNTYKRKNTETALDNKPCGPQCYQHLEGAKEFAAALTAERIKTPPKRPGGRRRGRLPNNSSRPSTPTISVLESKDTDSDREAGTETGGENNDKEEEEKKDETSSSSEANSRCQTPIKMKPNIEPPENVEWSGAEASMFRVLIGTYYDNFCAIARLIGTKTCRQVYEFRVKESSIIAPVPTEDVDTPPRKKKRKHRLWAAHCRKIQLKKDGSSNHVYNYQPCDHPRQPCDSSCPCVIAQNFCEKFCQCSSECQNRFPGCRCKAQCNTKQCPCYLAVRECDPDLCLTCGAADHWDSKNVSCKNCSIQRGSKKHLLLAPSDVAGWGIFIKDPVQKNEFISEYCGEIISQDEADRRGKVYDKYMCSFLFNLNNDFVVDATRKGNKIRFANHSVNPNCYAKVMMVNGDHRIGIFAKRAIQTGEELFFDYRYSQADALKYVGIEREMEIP
T1 sequence (Q921E6 whole entry partner): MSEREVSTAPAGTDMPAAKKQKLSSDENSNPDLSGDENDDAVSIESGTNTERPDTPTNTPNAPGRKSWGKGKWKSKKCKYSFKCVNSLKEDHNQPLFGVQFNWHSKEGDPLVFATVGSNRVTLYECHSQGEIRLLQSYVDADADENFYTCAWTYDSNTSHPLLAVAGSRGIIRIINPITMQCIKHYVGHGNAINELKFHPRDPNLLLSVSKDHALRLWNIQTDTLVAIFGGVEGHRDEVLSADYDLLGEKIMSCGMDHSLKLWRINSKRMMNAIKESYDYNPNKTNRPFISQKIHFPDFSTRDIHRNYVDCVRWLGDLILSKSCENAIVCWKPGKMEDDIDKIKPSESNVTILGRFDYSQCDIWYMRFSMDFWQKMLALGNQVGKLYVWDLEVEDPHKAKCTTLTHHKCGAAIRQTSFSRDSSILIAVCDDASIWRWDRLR
T1 sequence (Q80U70 whole entry partner): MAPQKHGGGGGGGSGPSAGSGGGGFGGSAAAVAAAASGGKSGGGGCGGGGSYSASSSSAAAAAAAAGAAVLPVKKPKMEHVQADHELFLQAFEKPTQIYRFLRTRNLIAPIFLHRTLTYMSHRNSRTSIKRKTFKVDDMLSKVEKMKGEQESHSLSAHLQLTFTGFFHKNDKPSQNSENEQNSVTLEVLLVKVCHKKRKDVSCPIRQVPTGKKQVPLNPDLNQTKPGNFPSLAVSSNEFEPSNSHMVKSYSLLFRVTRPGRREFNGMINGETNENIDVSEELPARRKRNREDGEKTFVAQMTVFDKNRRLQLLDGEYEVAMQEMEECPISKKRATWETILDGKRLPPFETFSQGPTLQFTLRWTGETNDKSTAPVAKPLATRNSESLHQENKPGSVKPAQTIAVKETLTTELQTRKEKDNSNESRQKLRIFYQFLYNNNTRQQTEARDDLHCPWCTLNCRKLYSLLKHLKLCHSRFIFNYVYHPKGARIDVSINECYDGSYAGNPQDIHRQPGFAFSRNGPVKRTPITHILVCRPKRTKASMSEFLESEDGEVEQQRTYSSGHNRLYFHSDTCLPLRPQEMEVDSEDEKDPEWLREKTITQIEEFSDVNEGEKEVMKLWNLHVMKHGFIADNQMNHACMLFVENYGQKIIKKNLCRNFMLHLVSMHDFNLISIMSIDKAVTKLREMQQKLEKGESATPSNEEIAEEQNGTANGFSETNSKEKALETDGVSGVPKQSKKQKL
T1 sequence (Q60972 whole entry partner): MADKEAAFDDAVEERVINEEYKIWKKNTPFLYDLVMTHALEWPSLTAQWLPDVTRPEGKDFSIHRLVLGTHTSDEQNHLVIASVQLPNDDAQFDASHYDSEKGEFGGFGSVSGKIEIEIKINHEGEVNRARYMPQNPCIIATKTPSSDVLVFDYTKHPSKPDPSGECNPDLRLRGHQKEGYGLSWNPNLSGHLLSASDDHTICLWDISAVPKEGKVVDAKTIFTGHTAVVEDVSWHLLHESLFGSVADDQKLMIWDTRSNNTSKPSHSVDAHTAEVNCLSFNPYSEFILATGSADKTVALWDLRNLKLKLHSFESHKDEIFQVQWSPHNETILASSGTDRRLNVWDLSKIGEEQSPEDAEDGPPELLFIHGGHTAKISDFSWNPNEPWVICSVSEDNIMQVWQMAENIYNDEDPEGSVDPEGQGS

Take `CC[C@H](C)n1cc(C)c2c(C(=O)NCc3c(C)cc(C)[nH]c3=O)cc(-c3ccc(N4CCNCC4)nc3)cc21` [GSK126]: in the assay on cPRC1-TetO-mESCs, the “initiation of reporter gene silencing” value is recorded as “did not disrupt” and the “maintenance of reporter gene silencing (repression)” value was “reduced by GSK126-treatment in a dose-dependent manner”. In addition, the “reduction in silencing, distal BFP reporter compared with proximal GFP reporter” value in the assay on cPRC1-TetO-mESCs (presence of Dox) is “more prominent at the distal BFP reporter than the proximal GFP promoter”. Moreover, the “H3K27me3 by Western blot” value on PRC2 (GSK126-treated parental mESCs (4 μM per FIG. 10A)) was “undetectable”. For the same compound, the “inhibition of the catalytic activity of PRC2” value at PRC2 (parental TetO-mESCs, 4 μM GSK126, immuno blot) was “specific and reversible inhibition”. Also, the “endogenous PRC2 and cPRC1 stability” value on PRC2 (parental TetO-mESCs, 4 μM GSK126, immuno blot of Ezh2 and Cbx7) was “without disrupting”.

For the compound `CCN(CC)CCCC[C@H](NC(=O)[C@H](CC(C)C)NC(=O)[C@H](C)NC(=O)[C@H](Cc1ccccc1)NC(=O)c1ccc(C(C)(C)C)cc1)C(=O)N[C@@H](CO)C(=O)OC` [UNC3866] ({Benzoyl(4-tBu)}-FAL[Lys(Et2)]S-OMe), in the assay with cPRC1-TetO-mESCs, the “initiation of reporter gene silencing” value is on record as “Neither compound had a significant effect” and the “maintenance of reporter gene silencing (repression)” value is listed as “disrupted only by UNC3866 treatment in a dose-dependent manner”.
